The subject of one assay is C. albicans ATCC 24433. The assay can be described thus: Checkerboard MIC assay for FICI. In kind it is cell-based, Candida albicans. The text has this: (§1) The following assay was used to determine the minimum inhibitory concentration (MIC) and fractional inhibitory concentration index (FICI) for combinations of antifungal agents and antibacterial agents. This assay and methods for calculating FICI are well known in the art. See, for example, Eliopoulos, E. G. and R. Moellering, Jr. “Antimicrobial Combinations” in Antibiotics in Laboratory Medicine, edited by V. Lorian, 4th Ed., Williams & Wilkins, Baltimore, Md., pp. 330-396 (1996); Shalit et al., Antimicrobial Agents and Chemotherapy 47(4):1416-1418 (2003); or Afeltra et al., Antimicrobial Agents and Chemotherapy 46(10):3323-3326 (2002).
(§2) Using a checkerboard method, a 2-fold dilution 100× final concentration master plate was prepared using a 96-well U-shape microtiter plate and an appropriate solvent. In the “checkerboard” method, a microtiter plate is divided into “columns” in which each well in the column contains the same amount of an antifungal agent (Compound A) being diluted along the x-axis, and “rows” in which each well in the row contains the same amount of a glycopeptide antibacterial agent (Compound B) being diluted on the γ-axis. Also included is a row (or column) for Compound A or B alone. The dilutions used in the checkerboard are exponential (by powers of two). The result is that each well in the microtiter plate contains a unique concentration of the two compounds being tested.
(§3) A matrix 2× final concentration was performed by transferring 30 μL of 100× Compound A and Compound B into a 1,440 μL RPMI in deep wells (one deep well per drug combination). After mixing, 100 μL of 2× drug combinations were distributed into 96-well microtiter plates. Compound A was diluted from Column 1 starting at 1,600 μg/mL to Column 11 (1.6 μg/mL). Wells in Column 1 contained a final concentration (after inoculum was added) of 16 μg/mL of Compound A; wells in Column 2 contained a final concentration of 8 μg/mL of Compound A; wells in Column 3 contained a final concentration of 4 μg/mL of Compound A; etc. Compound A was not added to Column 12, so Column 12 contained only Compound B.
(§4) Compound B was diluted from row A starting at 6,400 μg/mL down to row G (100 μg/mL). Wells in Row A contained a final concentration of 64 μg/mL of Compound B; Row B contained a final concentration of 32 μg/mL of Compound B; Row C contained a final concentration of 16 μg/mL of Compound B; etc. Compound B was not added to Row H, so Row H only contained Compound A.
(§5) In most cases, MIC of the glycopeptide antibacterial compound alone was >64 μg/mL. In order to get an accurate measurement, a standard MIC assay using NCCLS protocols was performed with an extended concentration range of from 256 μg/mL to 0.25 μg/mL. […]

Assay [1] deals with C. parapsilosis ATCC 22019. The assay can be described thus: Checkerboard MIC assay for FICI. In kind it is cell-based, Candida parapsilosis.
Text: as §1, §2, §3, §4, §5

For the next assay, the system named is C. tropicalis ATCC 750. The assay can be described thus: Checkerboard MIC assay for FICI. It counts as cell-based, Candida tropicalis.
Text: as §1, §2, §3, §4, §5

Another assay relates to C. glabrata ATCC 200918. The assay can be described thus: Checkerboard MIC assay for FICI. It counts as cell-based, Candida glabrata.
Text: as §1, §2, §3, §4, §5

The test system of the next assay is C. krusei ATCC 32672. The assay can be described thus: Checkerboard MIC assay for FICI. It counts as cell-based, Candida krusei.
Text: as §1, §2, §3, §4, §5

The next assay concerns various strains of fungi. The assay can be described thus: Assay for determining MIC and FICI, summary statements over strains. It counts as cell-based.
Text: as §1
FICI values are typically evaluated using the following criteria:
Using a checkerboard method, a 2-fold dilution 100× final concentration master plate was prepared using a 96-well U-shape microtiter plate and an appropriate solvent. In the “checkerboard” method, a microtiter plate is divided into “columns” in which each well in the column contains the same amount of an antifungal agent (Compound A) being diluted along the x-axis, and “rows” in which each well in the row contains the same amount of a glycopeptide antibacterial agent (Compound B) being diluted on the γ-axis. […]
The calculated value for the FICI of the combined test compounds was compared to the following standards in certain embodiments: […]

The next assay relates to C. neoformans ATCC 56991. The assay can be described thus: Checkerboard MIC assay for FICI. In kind it is cell-based, Cryptococcus neoformans.
Text: as §1
(§6) Using a checkerboard method, a 2-fold dilution 100× final concentration master plate was prepared using a 96-well U-shape microtiter plate and an appropriate solvent. In the “checkerboard” method, a microtiter plate is divided into “columns” in which each well in the column contains the same amount of an antifungal agent (Compound A) being diluted along the x-axis, and “rows” in which each well in the row contains the same amount of a glycopeptide antibacterial agent (Compound B) being diluted on the γ-axis. Also included is a row (or column) for Compound A or B alone. The dilutions used in the checkerboard are exponential (by powers of two). […]

The next assay deals with A. fumigatus ATCC 14110. The assay can be described thus: Checkerboard MIC assay for FICI. It counts as cell-based, Aspergillus fumigatus. The conditions noted are these: combination with caspofungin.
Text: as §1, §6

Assay [2] has as its system M. circinelloides ATCC 26759. The assay can be described thus: Checkerboard MIC assay for FICI. In kind it is cell-based, Mucor circinelloides. The conditions noted are these: combination with caspofungin.
Text: as §1, §6

In assay [3] the test system is S. prolificans ATCC 200543. The assay can be described thus: Checkerboard MIC assay for FICI. The settings on record: combination with caspofungin. It counts as cell-based.
Text: as §1, §6

Another assay concerns A. terreus ATCC 46941. The assay can be described thus: Checkerboard MIC assay for FICI. In kind it is cell-based. The settings on record: combination with caspofungin.
Text: as §1, §6

The subject of assay [4] is R. miscrosporus ATCC 14050. The assay can be described thus: Checkerboard MIC assay for FICI. In kind it is cell-based, Rhizopus microsporus. The settings on record: combination with caspofungin.
Text: as §1, §6

Another assay has as its system P. boydii ATCC 38283. The assay can be described thus: Checkerboard MIC assay for FICI. It counts as cell-based, Pseudallescheria boydii. The settings on record: combination with caspofungin.
Text: as §1, §6

The subject of another assay is G. candidum ATCC 62231. The assay can be described thus: Checkerboard MIC assay for FICI. The settings on record: combination with caspofungin. In kind it is cell-based, Geotricium candidum.
Text: as §1, §6

Assay [5] has as its system F. moniliforme ATCC 38159. The assay can be described thus: Checkerboard MIC assay for FICI. The settings on record: combination with caspofungin. In kind it is cell-based, Fusarium moniliforme.
Text: as §1, §6

A further assay has as its system A. flavus ATCC 64025. The assay can be described thus: Checkerboard MIC assay for FICI. In kind it is cell-based, Aspergillus flavus. The conditions noted are these: combination with caspofungin.
Text: as §1, §6

For `OC(Cn1cncn1)(Cn1cncn1)c1ccc(F)cc1F` [Fluconazole], the FICI (in the assay on C. albicans ATCC 24433 (combination with Compound 1); in [1] (combination with Compound 1); with C. tropicalis ATCC 750 (combination with Compound 1); with C. glabrata ATCC 200918 (combination with Compound 1); with C. krusei ATCC 32672 (combination with Compound 1)) was 2.00 throughout.

`CN[C@H](CC(C)C)C(=O)N[C@H]1C(=O)N[C@@H](CC(N)=O)C(=O)N[C@H]2C(=O)N[C@H]3C(=O)N[C@H](C(=O)N[C@H](C(=O)O)c4cc(O)cc(O)c4-c4cc3ccc4O)[C@H](O)c3ccc(c(Cl)c3)Oc3cc2cc(c3O[C@@H]2O[C@H](CO)[C@@H](O)[C@H](O)[C@H]2O[C@H]2C[C@](C)(N)[C@H](O)[C@H](C)O2)Oc2ccc(cc2Cl)[C@H]1O` [Vancomycin]: the FICI (in the assay on C. albicans ATCC 24433 (combination with caspofungin); in assay [1] (combination with caspofungin); with C. tropicalis ATCC 750 (combination with caspofungin); in the assay on C. glabrata ATCC 200918 (combination with caspofungin); in the assay with C. krusei ATCC 32672 (combination with caspofungin)) was 2.00 throughout. For the same compound, the “effect of the combination with caspofungin” value in the assay with various strains of fungi (strains of Table 1, FICI criteria of b187) is “not synergistic or additive”.

For `C[C@@H](c1ncncc1F)[C@](O)(Cn1cncn1)c1ccc(F)cc1F` [Voriconazole, voriconazole], the FICI in the assay with C. glabrata ATCC 200918 (combination with Compound 1) and in the assay with C. krusei ATCC 32672 (combination with Compound 1) was 1.13 in each case.

For the compound `CC[C@H](C)C[C@H](C)CCCCCCCCC(=O)N[C@H]1C[C@@H](O)[C@@H](NCCN)NC(=O)[C@@H]2[C@@H](O)CCN2C(=O)[C@H]([C@H](O)CCN)NC(=O)[C@H]([C@H](O)[C@@H](O)c2ccc(O)cc2)NC(=O)[C@@H]2C[C@@H](O)CN2C(=O)[C@H]([C@@H](C)O)NC1=O` [caspofungin], the “activity of caspofungin against C. neoformans” value with C. neoformans ATCC 56991 (caspofungin alone) is listed as “no activity”.

Turning to `CCCCCCCCCCNCCN[C@@]1(C)C[C@H](O[C@H]2[C@H](Oc3c4cc5cc3Oc3ccc(cc3Cl)[C@@H](O)[C@@H](NC(=O)[C@@H](CC(C)C)NC)C(=O)N[C@@H](CC(N)=O)C(=O)N[C@H]5C(=O)N[C@H]3C(=O)N[C@H](C(=O)N[C@H](C(=O)O)c5cc(O)c(CNCP(=O)(O)O)c(O)c5-c5cc3ccc5O)[C@H](O)c3ccc(c(Cl)c3)O4)O[C@H](CO)[C@@H](O)[C@@H]2O)O[C@@H](C)[C@H]1O` [Compound 1, telavancin], the FICI with A. fumigatus ATCC 14110 is reported as 0.28; in assay [2], 2; in assay [3] it was 1.25; with A. terreus ATCC 46941, 0.31; with C. albicans ATCC 24433 (combination with caspofungin), 0.27; in assay [4], 2. In addition, the FICI in assay [1] (combination with caspofungin) is on record as 0.38; in the assay with C. tropicalis ATCC 750 (combination with caspofungin) it was 0.26; in the assay with P. boydii ATCC 38283, 0.31; in the assay with G. candidum ATCC 62231, 0.31; in the assay with C. neoformans ATCC 56991 (combination with caspofungin, C. neoformans ATCC 56991, checkerboard), 0.75; in the assay on C. glabrata ATCC 200918 (combination with caspofungin), 0.28. Further, the FICI is recorded as 2 in assay [5], 0.31 with C. krusei ATCC 32672 (combination with caspofungin) and 0.16 in the assay with A. flavus ATCC 64025. Further, the “effect of the combination with caspofungin” value in the assay on various strains of fungi (all yeast strains tested, except C. neoformans, FICI ≦ 0.5 = synergistic) was “synergistic”.

`Clc1ccc(COC(Cn2ccnc2)c2ccc(Cl)cc2Cl)c(Cl)c1` (stereo not drawn) [Miconazole]: the FICI (in the assay with C. albicans ATCC 24433 (combination with Compound 1); in assay [1] (combination with Compound 1); with C. tropicalis ATCC 750 (combination with Compound 1)) was 2.00 each time.

These data come from patent US7902148B2, “Use of an echinocandin antifungal agent in combination with a glycopeptide antibacterial agent” (Theravance, Inc., priority 2003, dated 2011).
